Laboratory results as given in patent US11111251B2, “Positive allosteric modulators of the muscarinic acetylcholine receptor M1” (Vanderbilt University, priority 2016, dated 2021).
Like-named read-outs stand apart in the source and are kept apart here.

Target: T1, human mAChR M1 (Homo sapiens, UniProt P11229)
T1 sequence (P11229 1-460): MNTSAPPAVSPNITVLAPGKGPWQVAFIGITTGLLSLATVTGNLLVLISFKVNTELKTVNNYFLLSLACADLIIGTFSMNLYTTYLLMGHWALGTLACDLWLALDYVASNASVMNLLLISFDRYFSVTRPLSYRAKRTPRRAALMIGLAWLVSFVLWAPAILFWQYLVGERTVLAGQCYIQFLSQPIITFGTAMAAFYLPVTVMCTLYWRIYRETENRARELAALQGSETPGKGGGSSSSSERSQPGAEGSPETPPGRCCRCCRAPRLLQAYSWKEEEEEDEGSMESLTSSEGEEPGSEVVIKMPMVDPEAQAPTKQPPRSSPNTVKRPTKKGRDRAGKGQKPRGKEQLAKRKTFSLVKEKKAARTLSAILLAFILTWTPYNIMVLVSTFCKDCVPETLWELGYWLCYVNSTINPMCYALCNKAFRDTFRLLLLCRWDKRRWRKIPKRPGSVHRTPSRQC
Assay: mAChR M1 cell-based functional assay: calcium mobilization, positive allosteric modulator mode (increase in EC20 acetylcholine response)
Conditions: for Emax: read-out: Human M1 Emax (%)
Outline: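 Calcium-flux assay in CHO-K1 cells stably expressing human M1, loaded with Fluo-4 AM (50 min, 37 °C) and read at 1 Hz. Compound (11-point, 1:3 series) was added at 4 s, EC20 acetylcholine at 144 s and EC80 at 230 s. PAM activity is the concentration-dependent rise in the EC20 response, fitted with a four-parameter logistic.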

[1] = Table 2, human M1, read-out: Human M1 EC50

| Compound | EC50 [1] [nM] | Emax (Table 2, human M1) [%] | EC50 (Table 1, mAChR M1 cell-based functional assay, PAM mode, species not given, read-out: EC50) [nM] | Human M1 Emax (%) (Table 2, human M1) |
| --- | --- | --- | --- | --- |
| Cc1ccc(Cc2cc(C(=O)NC3CCOCC3)nc3c(C)csc23)cn1 [Compound 102, 3-methyl-7-[(6-methyl-3-pyridyl)methyl]-N-tetrahydropyran-4-yl-thieno[3,2-b]pyridine-5-carboxamide] | 2700 | 82.5 |  |  |
| Cn1ncc2nc(C(=O)N[C@H]3CCCC[C@@H]3O)cc(Cc3ccc(-c4cscn4)cc3)c21 [Compound 492, N-[(1S,2S)-2-hydroxycyclohexyl]-1-methyl-7-[(4-thiazol-4-ylphenyl)methyl]pyrazolo-[4,3-b]pyridine-5-carboxamide] | 504 | 73.3 |  |  |
| Cn1cc(-c2ccc(Cc3cc(C(=O)N[C@H]4CCOC[C@@H]4O)nc4ccsc34)c(F)c2)cn1 [Compound 52, 7-[[2-fluoro-4-(1-methylpyrazol-4-yl)phenyl]methyl]-N-[(3R,4S)-3-hydroxytetrahydropyran-4-yl]thieno[3,2-b]pyridine-5-carboxamide] | 1960 | 76 |  |  |
| O=C(N[C@H]1CCCC[C@@H]1O)c1cc(Cc2c(F)cc(-c3cscn3)cc2F)c2sccc2n1 [Compound 273, 7-[(2,6-difluoro-4-thiazol-4-yl-phenyl)methyl]-N-[(1S,2S)-2-hydroxycyclohexyl]thieno[3,2-b]pyridine-5-carboxamide] | 272 | 73.6 |  |  |
| CC1(C)COCCC1NC(=O)c1cc(Cc2ccc(-c3cncs3)cc2)c2sccc2n1 (stereo not drawn) [Compound 390, N-(3,3-dimethyltetrahydropyran-4-yl)-7-[(4-thiazol-5-ylphenyl)methyl]thieno[3,2-b]pyridine-5-carboxamide] | 926 | 66.3 |  |  |
| C[C@@H]1CC(NC(=O)c2cc(Cc3ccc(-c4cscn4)cc3)c3c(ccn3C)n2)C[C@H](C)O1 (stereo partly drawn) [Compound 460, N-[(2S,6R)-2,6-dimethyltetrahydropyran-4-yl]-1-methyl-7-[(4-thiazol-4-ylphenyl)methyl]pyrrolo[3,2-b]pyridine-5-carboxamide] | 379 | 70.3 |  |  |
| 7-[[6-(1-methylpyrazol-4-yl)-3-pyridyl]methyl]-N-tetrahydropyran-4-yl-thieno[3,2-b]pyridine-5-carboxamide [Compound 301] | 42.3 |  |  | 71.87 |
| Cn1cc(-c2ccc(Cc3cc(C(=O)N[C@H]4CCCC[C@@H]4O)nc4ccsc34)c(F)c2)cn1 [Compound 51, 7-[[2-fluoro-4-(1-methylpyrazol-4-yl)phenyl]methyl]-N-[(1S,2S)-2-hydroxycyclohexyl]thieno[3,2-b]pyridine-5-carboxamide] | 3610 | 76.9 |  |  |
| Cc1ncc(Cc2cc(C(=O)NC3CCCNC3=O)nc3ccsc23)s1 (stereo not drawn) [Compound 143, 7-[(2-methylthiazol-5-yl)methyl]-N-(2-oxo-3-piperidyl)thieno[3,2-b]pyridine-5-carboxamide] | > 10000 | 50.5 |  |  |
| Cn1ccc2nc(C(=O)N[C@H]3CC[C@@H]3O)cc(Cc3ccc(-c4nccs4)cc3)c21 [Compound 482, N-[(1S,2S)-2-hydroxycyclobutyl]-1-methyl-7-[(4-thiazol-2-ylphenyl)methyl]pyrrolo[3,2-b]pyridine-5-carboxamide] | 171 | 61.2 |  |  |
| Cn1ccc(-c2ccc(Cc3cc(C(=O)N[C@H]4CCOC[C@@H]4O)nc4ccsc34)cc2)n1 [Compound 255, N-[(3R,4S)-3-hydroxytetrahydropyran-4-yl]-7-[[4-(1-methylpyrazol-3-yl)phenyl]methyl]thieno[3,2-b]pyridine-5-carboxamide] | 5.76 | 47 |  |  |
| O=C(NC1COC1)c1cc(Cc2ccc(-c3cscn3)cc2)c2sccc2n1 [Compound 202, N-(oxetan-3-yl)-7-[(4-thiazol-4-ylphenyl)methyl]thieno[3,2-b]pyridine-5-carboxamide] | 1370 | 63.7 |  |  |
| Cc1nc(-c2ccc(Cc3cc(C(=O)N[C@@H]4CCOC4)nc4ccsc34)cc2)cs1 [Compound 183, 7-[[4-(2-methylthiazol-4-yl)phenyl]methyl]-N-[(3R)-tetrahydrofuran-3-yl]thieno[3,2-b]pyridine-5-carboxamide] | 2530 | 67.3 |  |  |
| Cn1cc(-c2ccc(Cc3cc(C(=O)NC4CCOCC4(C)C)nc4ccsc34)cn2)cn1 (stereo not drawn) [Compound 362, N-(3,3-dimethyltetrahydropyran-4-yl)-7-[[6-(1-methylpyrazol-4-yl)-3-pyridyl]methyl]thieno[3,2-b]pyridine-5-carboxamide] | 84.9 | 72.4 |  |  |

The next lines start with results.

| EC50 [1] [nM] | Emax (Table 2, human M1) [%] | EC50 (Table 1, mAChR M1 cell-based functional assay, PAM mode, species not given, read-out: EC50) [nM] | Compound | Human M1 Emax (%) (Table 2, human M1) |
| --- | --- | --- | --- | --- |
| 5820 | 36.7 |  | Cc1ccc(Cc2cc(C(=O)NC3CCN(C)CC3)nc3c(C)csc23)cn1 [Compound 112, 3-methyl-N-(1-methyl-4-piperidyl)-7-[(6-methyl-3-pyridyl)methyl]thieno[3,2-b]pyridine-5-carboxamide] |  |
| 17.7 | 84.3 |  | Cn1cc(-c2ccc(Cc3cc(C(=O)NC4CC5(COC5)C4)nc4ccsc34)cc2)nn1 [Compound 175, 7-[[4-(1-methyltriazol-4-yl)phenyl]methyl]-N-(2-oxaspiro[3.3]heptan-6-yl)thieno[3,2-b]pyridine-5-carboxamide] |  |
| 2970 | 77 |  | O=C(N[C@@H]1CCOC1)c1cc(Cc2ccc(-c3cscn3)cc2)c2sccc2n1 [Compound 207, N-[(3R)-tetrahydrofuran-3-yl]-7-[(4-thiazol-4-ylphenyl)methyl]thieno[3,2-b]pyridine-5-carboxamide] |  |
| 256 | 55 |  | O=C(NC1CC(F)(F)C1)c1cc(Cc2ccc(-n3cccn3)cc2)c2sccc2n1 [Compound 281, N-(3,3-difluorocyclobutyl)-7-[(4-pyrazol-1-ylphenyl)methyl]thieno[3,2-b]pyridine-5-carboxamide] |  |
| 4960 | 75.7 |  | Cc1ccc(Cc2cc(C(=O)NC3CCCCC3)nc3c(C)csc23)cn1 [Compound 101, N-cyclohexyl-3-methyl-7-[(6-methyl-3-pyridyl)methyl]thieno[3,2-b]pyridine-5-carboxamide] |  |
| 3800 | 65.2 |  | Cc1nc(-c2ccc(Cc3cc(C(=O)NC4CN(C(C)(C)C)C4)nc4ccsc34)cc2)cs1 [Compound 179, N-(1-tert-butylazetidin-3-yl)-7-[[4-(2-methylthiazol-4-yl)phenyl]methyl]thieno[3,2-b]pyridine-5-carboxamide] |  |
| 233 | 89.3 |  | Cc1ccc(Cc2cc(C(=O)N[C@@H]3CCCC[C@H]3O)nc3c(C)csc23)cn1 [Compound 103, N-[(1R,2R)-2-hydroxycyclohexyl]-3-methyl-7-[(6-methyl-3-pyridyl)methyl]thieno[3,2-b]pyridine-5-carboxamide] |  |
| > 10000 | 62.4 |  | Cc1ccc(Cc2cc(C(=O)Nc3c[nH]cn3)nc3ccsc23)cn1 [Compound 70, N-(1H-imidazol-4-yl)-7-[(6-methyl-3-pyridyl)methyl]thieno[3,2-b]pyridine-5-carboxamide] |  |
| 583 | 69.5 |  | O=C(NCC1CCOCC1)c1cc(Cc2ccc(-c3cncs3)cc2)c2sccc2n1 [Compound 387, N-(tetrahydropyran-4-ylmethyl)-7-[(4-thiazol-5-ylphenyl)methyl]thieno[3,2-b]pyridine-5-carboxamide] |  |
| 4930 | 57.3 |  | Cc1csc2c(Cc3ccc(-c4ccn(C)n4)cc3)cc(C(=O)NC3CC(F)(F)C3)nc12 [Compound 309, N-(3,3-difluorocyclobutyl)-3-methyl-7-[[4-(1-methylpyrazol-3-yl)phenyl]methyl]thieno[3,2-b]pyridine-5-carboxamide] |  |
|  |  | > 10000 | Cn1cc(-c2ccc(Oc3cc(C(=O)NC4CC[C@H]4O)nc4ccsc34)c(F)c2)cn1 (stereo partly drawn) [Compound 5, 7-[2-fluoro-4-(1-methylpyrazol-4-yl)phenoxy]-N-[(2R)-2-hydroxycyclobutyl]thieno[3,2-b]pyridine-5-carboxamide] |  |
| 22.1 | 81.5 |  | O=C(N[C@H]1COCC[C@@H]1O)c1cc(Cc2ccc(-c3nccs3)cc2)c2sccc2n1 [Compound 371] |  |
